According to patent US20090304810A1, “Composition and method for enhanced sanitation and oxidation of aqueous systems” (priority 2005, published 2009):

Tests used:
planktonic algae = assay: Algae destruction in outdoor pool; type: cell-based; settings: same pool system, opening procedure, 500 lbs
Description: In an outdoor 360,000 gallon pool contaminated with planktonic algae, 200 lbs of the cobalt monopersulfate composition comprising 99.3 wt % Potassium monopersulfate, 0.5 wt % Magnesium Carbonate, and 0.2 wt % Cobalt Acetate as previously disclosed was added to the system by broadcasting. 40 pounds of soda ash was added to neutralize excess acidity, and the ORP controller was set at 780 mV.
The ORP was consistently achieving 780 mV with 2.0-2.5 ppm of free chlorine.
For comparison purposes, the same pool system during the opening procedure was treated with 500 lbs of calcium hypochlorite and allowed to circulate for 7 days before obtaining the water clarity and being allowed to open to swimmers.

Catalyst precipitation = type: physicochemical
Description: 20 grams of potassium monopersulfate, 0.1 grams cuprous chloride and 80 grams distilled water was added to a 250 ml beaker and mixed on a magnetic stirrer until dissolved. 1 gram of solution was carefully measured and diluted with 99 grams of distilled water. The diluted sample was treated with sodium bisulfite to remove residual monopersulfate, the pH was then adjusted to 7.3 using a diluted solution of sodium hydroxide. The resulting clear solution was tested using a HACH Company Method 8506 bicinchoninate-powder pillow test procedure and a DR-2000 spectrophotometer. The resulting copper level was measured and corrected compensate for the dilution. The final result being 4.9 ppm as Cu.
A second 1-gram sample from the original solution was neutralized with sodium bisulfite, then treated with 2-grams of 0.1 wt % alum solution to achieve approximately 20 ppm as alum in the diluted solution. The pH was adjust with dilute sodium hydroxide to achieve a pH of approximately 7.3, mixed for about 5 minutes, then allowed to settle in a graduated cylinder. 25 ml of clear water was decanted and tested for copper, resulting a value of 0.78 ppm as Cu.

Compound: [Ca+2].[O-]Cl.[O-]Cl [calcium hypochlorite]
- circulation time before obtaining water clarity (planktonic algae): 7 days

Compound: [Cl][Cu] [cuprous chloride]
- copper level (Catalyst precipitation; no alum, 1:99 diluted, pH 7.3, monopersulfate removed): 4.9 ppm as Cu

Compound: alum
- copper level in decanted clear water (Catalyst precipitation; approximately 20 ppm alum, pH approximately 7.3, mixed about 5 minutes, settled): 0.78 ppm as Cu
